Measured values reported in ChEMBL document CHEMBL4000195, “Design and synthesis of novel 7-aminosubstituted pyrido[2,3-b]pyrazines exhibiting anti-breast cancer activity” (Eur J Med Chem, 2017).

Columns and labels:
Format in all cases: functional
[1] = system: MCF7; assay: Cytotoxicity against human MCF7 cells at 10 uM by MTT assay
[2] = system: MDA-MB-231; assay: Cytotoxicity against human MDA-MB-231 cells at 5 uM by MTT assay
[3] = system: MDA-MB-231; assay: Cytotoxicity against human MDA-MB-231 cells at 10 uM by MTT assay
[4] = system: T47D; assay: Cytotoxicity against human T47D cells at 10 uM by MTT assay
[5] = system: HCC1954; assay: Cytotoxicity against human HCC1954 cells at 5 uM by MTT assay
[6] = system: T47D; assay: Cytotoxicity against human T47D cells at 5 uM by MTT assay
[7] = system: MCF7; assay: Cytotoxicity against human MCF7 cells at 5 uM by MTT assay
[8] = system: HCC1954; assay: Cytotoxicity against human HCC1954 cells at 10 uM by MTT assay

Measured: Activity

Cc1nc2nccnc2cc1NC(=O)c1cccc(C(F)(F)F)c1
<50%: all assays above

Cc1nc2nc(Sc3ccccc3)cnc2cc1NC(=O)CN1CCN(C)CC1
<50%: all assays above

Cc1nc2nc(Sc3ccccc3)cnc2cc1NC(=O)CN(C)C
<50%: all assays above

Cc1nc2nc(Sc3ccccc3)cnc2cc1NC(=O)c1ccc([N+](=O)[O-])cc1
<50%: all assays above

Cc1nc2nc(Sc3ccccc3)cnc2cc1NC(=O)Nc1ccc(F)c(Cl)c1
<50%: all assays above

Cc1nc2nccnc2cc1NC(=O)CN(C)C
<50%: all assays above

CSc1ccc(NC(=O)Nc2cc3ncc(Sc4ccccc4)nc3nc2C)cc1
<50%: all assays above

Cc1nc2nc(Sc3ccccc3)cnc2cc1NC(=O)Nc1ccc(F)c([N+](=O)[O-])c1
<50%: all assays above

Cc1ccc(C(=O)Nc2cc3ncc(Sc4ccccc4)nc3nc2C)cc1
<50%: all assays above

Cc1nc2nc(Sc3ccccc3)cnc2cc1NC(=O)c1ccccc1C(F)(F)F
<50%: all assays above

Cc1nc2nc(Sc3ccccc3)cnc2cc1NC(=O)c1cccc(C(F)(F)F)c1
<50%: all assays above

COc1cc(C(=O)Nc2cc3ncc(Sc4ccccc4)nc3nc2C)cc(OC)c1OC
<50%: all assays above

Cc1nc2nccnc2cc1NC(=O)c1ccc([N+](=O)[O-])cc1
<50%: all assays above
